Source: patent US8119614B2, “Substitution derivatives of N6-benzyladenosine, methods of their preparation, their use for preparation of drugs, cosmetic preparations and growth regulators, pharmaceutical preparations, cosmetic preparations and growth regulators containing these compounds” (Ustav Experimentalni Botaniky Akademie Ved Ceske Republiky, priority 2002, dated 2012)

Experiments:
Format in all cases: cell-based, human
p21^WAF-1 protein = assay: Induction of p21^WAF-1 protein in MCF-7 cells (SDS-PAGE, immunodetection)
Protocol: MCF-7 cells cultured at 37° C. in 5% CO2 atmosphere in D-MEM medium supplemented with 10% foetal calf serum were treated with 2OH3MeOBAPR concentrations range of 0-100 μM. 2OH3MeOBAPR was added into the medium from the 100 mM storage solution in DMSO. Cells were harvested after 12 hours incubation with 2OH3MeOBAPR, centrifuged (1000 rpm, 4° C., 5 min), washed twice by ice-cold PBS and re-centrifuged. These washed cells were then lysed by 1×CSB (loading buffer for SDS-PAGE, i.e. electrophoresis of proteins in polyacrylamide gel containing SDS). Cell lysate proteins were separated by SDS-PAGE and transferred onto a nitrocelulose (NC) membrane. NC membrane was blocked by 5% skimmed milk, 0.1% Tween 20 in PBS. Protein level of p21^WAF-1 and actin (as a loaded protein volume control) were detected immunochemically using commercially available specific monoclonal antibodies anti-p21^WAF-1 (Ab-1, Calbiochem) and anti-Actin (Clone AC-40, Sigma-Aldrich). The primary antibodies bind to target proteins were detected using rabbit secondary peroxidase-labeled antibody (RAM-Px, DAKO), followed by chemiluminiscence (ECL, Amersham-Pharmacia).
MCF-7 cells were incubated in presence of 1 μM 2OH3MeOBAPR. Treated cells were harvested and lysed after various time periods of 2OH3MeOBAPR treatment. […]

HL-60 cells = assay: HL-60 cell proliferation and viability (FDA/PI staining)
Protocol: Cell culture. A suspension of human promyelocytic HL-60 cells was cultured in RPMI-1640 medium supplemented with a 10% calf foetal serum and antibiotics in 5% CO2 atmosphere at 37° C. Cells were maintained at density from 1×10^5 to 6×10^5 cells per ml. HL-60 cells were obtained from ECACC.
Cell viability assay. Double staining with fluorescein diacetate (FDA) and propidium iodide (PI) for discrimination of dead and living cells was used. Cells were stained in growing medium with PI at a concentration 10 μg/ml 5 min later FDA was added at a concentration 1 μg/ml. The percentage of dead cells (i.e., red stained cells) was evaluated using fluorescence microscopy (Mlejnek and Kolman 1999).

caspase-9 = assay: Caspase protease activity measurement in cell extracts, caspase-9; conditions: 20 μM, substrate Ac-LEHD-AFC (FIG. 9)
Protocol: Caspase protease activity measurement. Cells were washed in PBS and then extracted in buffer [50 mM HEPES, pH 7.4, 1 mM EDTA, 0.1% Chaps, 5 mM DTT, and proteinase inhibitor cocktail (Roche)] on ice. Cell extracts were centrifuged for 30 min at 30 000×g at 4° C. Clarified extract were immediately analysed or stored at −80° C. […] The assay was carried out in 1 ml tubes, aliquots of lysates (200-300 μg of total protein) were mixed with 1 ml of buffer (25 mM PIPES/KOH, 2 mM EGTA, 5 mM DTT, and 0.1% Chaps, pH 7.3) and reactions were initiated by adding 50 μM substrate. Samples were incubated for 1 hour at 30° C. before the fluorescence was determined. Excitation and emission wavelengths were the same for both substrates (380 nm and 445 nm, respectively).

COc1cccc(CNc2ncnc3c2ncn3[C@@H]2O[C@H](CO)[C@@H](O)[C@H]2O)c1O [2-hydroxy-3-methoxybenzylamino, 6-(2-hydroxy-3-methoxybenzylamino)purine riboside]
p21^WAF-1 protein induction in dependence on duration of incubation (p21^WAF-1 protein; 1 μM, 6-24 hours after addition): Efficient p21^WAF-1 protein induction is achieved | p21^WAF-1 protein induction in dependence on concentration (p21^WAF-1 protein; 12 hours, 0-100 μM, effective at units of μmol/liter): Efficient p21^WAF-1 protein induction is achieved | inhibition of HL-60 cell proliferation (HL-60 cells; 2.5-60 μM (FIG. 4)): inhibit cell proliferation | cytotoxicity of the compound itself versus its phosphorylated forms (HL-60 cells; HL-60 cells): is not cell cytotoxic by itself | activation of caspase-9 (caspase-9): activate caspase proteases, especially caspase-9 and -3
